Among the data in ChEMBL document CHEMBL3593223, “Neolignans with a Rare 2-Oxaspiro[4.5]deca-6,9-dien-8-one Motif from the Stem Bark of Cinnamomum subavenium” (J Nat Prod, 2015) are viability and IC50 values, retold here.

Structures are written as SMILES. pIC50: −log10 of the molar value.

Broadly, the pIC50 is the negative decadic logarithm of the IC50, by convention in mol/L.

Tested on in one series: not listed separately
The series can be described thus: Cytotoxicity against mouse RAW264.7 cells assessed as survival rate at 200 uM after 48 hrs by MTT assay in absence of LPS relative to control. The conditions noted are these: read-out: Survival. In kind it is cell-based. On the technique in general: Formazan colour is commonly taken as a measure of viable cells.
In the case of `COC1=CC2(C=C(OC)C1=O)[C@@H](CO)[C@H](c1cc(OC)c(O)c(OC)c1)O[C@H]2[C@H](O)CO`, the viability at 48 h, 200 µM turned out to be 102%.

With `COC1=CC2(C=C(OC)C1=O)[C@H](CO)[C@@H](c1ccc(O)c(OC)c1)O[C@@H]2[C@@H](O)CO`, the viability at 48 h, 200 µM amounted to 98%.

For `COC1=CC2(C=C(OC)C1=O)[C@@H](CO)[C@H](c1ccc(O)c(OC)c1)O[C@H]2[C@H](O)CO`, the viability at 48 h, 200 µM is 99%.

On to `COC1=CC2(C=C(OC)C1=O)[C@H](CO)[C@@H](c1cc(OC)c(O)c(OC)c1)O[C@@H]2[C@@H](O)CO`, for which the viability at 48 h, 200 µM was 101%.

Regarding `C[C@@H]1C[C@H]2[C@@H]3CCC4=CC(=O)C=C[C@]4(C)[C@@]3(F)[C@@H](O)C[C@]2(C)[C@@]1(O)C(=O)CO` [DEXAMETHASONE], the viability at 48 h, 200 µM came out at 91%.

A further series has as its system RAW264.7. The series can be described thus: Antiinflammatory activity in mouse RAW264.7 cells assessed as inhibition of LPS-induced nitric oxide production after 24 hrs by Griess assay. In kind it is functional, cell-based. The conditions noted are these: RAW264.7, 24 h.
For `COC1=CC2(C=C(OC)C1=O)[C@@H](CO)[C@H](c1cc(OC)c(O)c(OC)c1)O[C@H]2[C@H](O)CO`, the negative-log IC50 (pIC50) was 5.37.

For `COC1=CC2(C=C(OC)C1=O)[C@H](CO)[C@@H](c1ccc(O)c(OC)c1)O[C@@H]2[C@@H](O)CO`, the negative logarithm of the IC50 (pIC50) is 4.75.

As for `COC1=CC2(C=C(OC)C1=O)[C@@H](CO)[C@H](c1ccc(O)c(OC)c1)O[C@H]2[C@H](O)CO`, the negative-log IC50 (pIC50) was 5.25.

As for `COC1=CC2(C=C(OC)C1=O)[C@H](CO)[C@@H](c1cc(OC)c(O)c(OC)c1)O[C@@H]2[C@@H](O)CO`, the pIC50 was 4.82.

`C[C@@H]1C[C@H]2[C@@H]3CCC4=CC(=O)C=C[C@]4(C)[C@@]3(F)[C@@H](O)C[C@]2(C)[C@@]1(O)C(=O)CO` [DEXAMETHASONE]: the pIC50 was 6.20.

Tested on in the next series: not listed separately
The series can be described thus: Cytotoxicity against mouse RAW264.7 cells assessed as survival rate at 200 uM after 48 hrs by MTT assay in presence of LPS relative to control. In kind it is cell-based. The note with it: read-out: Survival.
Consider `COC1=CC2(C=C(OC)C1=O)[C@@H](CO)[C@H](c1cc(OC)c(O)c(OC)c1)O[C@H]2[C@H](O)CO`, for which the viability at 48 h, 200 µM stood at 111%.

On to `COC1=CC2(C=C(OC)C1=O)[C@H](CO)[C@@H](c1ccc(O)c(OC)c1)O[C@@H]2[C@@H](O)CO`, for which the viability at 48 h, 200 µM worked out at 104%.

Take `COC1=CC2(C=C(OC)C1=O)[C@@H](CO)[C@H](c1ccc(O)c(OC)c1)O[C@H]2[C@H](O)CO`: the viability at 48 h, 200 µM stood at 90%.

Consider `COC1=CC2(C=C(OC)C1=O)[C@H](CO)[C@@H](c1cc(OC)c(O)c(OC)c1)O[C@@H]2[C@@H](O)CO`, for which the viability at 48 h, 200 µM came to 109%.

As for `C[C@@H]1C[C@H]2[C@@H]3CCC4=CC(=O)C=C[C@]4(C)[C@@]3(F)[C@@H](O)C[C@]2(C)[C@@]1(O)C(=O)CO` [DEXAMETHASONE], the viability at 48 h, 200 µM came out at 100%.
